Our source for the minimal effective dose values is patent publication EP0563686A1, “Utilization of 3 substituted amino isoxazole derivatives against endoparasites, new 3 substituted amino isoxazols and process for their preparation” (BAYER AG, priority 1992, dated 1993).

Structures are written as SMILES.

The first experiment relates to Trichostrongylus colubriformis. Nature of the experiment: In vivo nematode test, Trichostrongylus colubriformis / sheep (faecal worm egg count before and after treatment). Set-up: species or system Schaf. The conditions noted are these: experimentally infected sheep, treated after prepatency, pure active in gelatin capsules, oral, dose giving complete cessation of egg excretion, read-out: Dosis effectiva. From the text:
Trichostrongylus colubriformis / Schaf
Experimentell mit Trichostrongylus colubriformis infizierte Schafe wurden nach Ablauf der Präpatenzzeit des Parasiten behandelt. Die Wirkstoffe wurden als reiner Wirkstoff in Gelatinekapseln oral appliziert.
(§1) Der Wirkungsgrad wird dadurch bestimmt, daß man die mit dem Kot ausgeschiedenen Wurmeier vor und nach der Behandlung quantitativ auszählt.
Ein völliges Sistieren der Eiausscheidung nach der Behandlung bedeutet, daß die Würmer abgetrieben wurden oder so geschädigt sind, daß sie keine Eier mehr produzieren (Dosis effectiva).
(§2) Geprüfte Wirkstoffe und wirksame Dosierungen (Dosis effectiva) sind aus der nachfolgenden Tabelle ersichtlich.
For the compound `CCNc1cc(-c2cccnc2)on1` [Beispiel 57], the minimal effective dose turned out to be 10 mg/kg.

Turning to `CCNc1cc(-c2ccc(SC(F)(F)F)cc2)on1` [Beispiel 22], the minimal effective dose came out at 10 mg/kg. On the same count and under the same terms, in the case of `CCNc1cc(-c2ccsc2)on1` [Beispiel 63] it was 10 mg/kg; in that of `COc1ccc(-c2cc(NC3CC3)no2)cc1` [Beispiel 6], 10 mg/kg; in that of `CCNc1cc(-c2ccc(OC)cc2)on1` [Beispiel 4, 3-Ethylamino-5-(4-methoxyphenyl)-isoxazol], 10 mg/kg. Turning to `COc1ccc(-c2cc(NCC3CC3)no2)cc1` [Beispiel 10], the minimal effective dose worked out at 10 mg/kg.

The next experiment deals with Haemonchus contortus. The experiment can be described thus: In vivo nematode test, Haemonchus contortus / sheep (faecal worm egg count before and after treatment). Set-up: species or system Schaf. The conditions noted are these: experimentally infected sheep, treated after prepatency, pure active in gelatin capsules, oral, dose giving complete cessation of egg excretion, read-out: Dosis effectiva.
From the text: Haemonchus contortus / Schaf
Experimentell mit Haemonchus contortus infizierte Schafe wurden nach Ablauf der Präpatenzzeit des Parasiten behandelt. Die Wirkstoffe wurden als reiner Wirkstoff in Gelatinekapseln oral appliziert.
as §1
Ein völliges Sistieren der Eiausscheidung nach der Behandlung bedeutet, daß die Wärmer abgetrieben wurden oder so geschädigt sind, daß sie keine Eier mehr produzieren (Dosis effectiva).
as §2
Regarding `CCNc1cc(-c2cccnc2)on1` [Beispiel 57], the minimal effective dose came to 10 mg/kg. The same measure, in the same setting: in the case of `CCNc1cc(-c2ccc(SC(F)(F)F)cc2)on1` [Beispiel 22] it was 10 mg/kg; in that of `COc1ccc(-c2cc(NC3CC3)no2)cc1` [Beispiel 6], 10 mg/kg; in that of `CCNc1cc(-c2ccc(OC)cc2)on1` [Beispiel 4, 3-Ethylamino-5-(4-methoxyphenyl)-isoxazol], 10 mg/kg. Same read-out and setting: the result for `COc1ccc(-c2cc(NCC3CC3)no2)cc1` [Beispiel 10] reads 10 mg/kg. `COc1ccc(-c2cc(NCCc3ccccc3)no2)cc1` [Beispiel 13]: the minimal effective dose amounted to 10 mg/kg. On the same count and under the same terms, in the case of `Brc1ccc(-c2cc(NC3CCCCC3)no2)cc1` [Beispiel 43] it was 10 mg/kg.
